What all share (type): biochemical
Assay [1] has as its target T1, VEGFR2 (Homo sapiens, UniProt P35968).
T1 construct: purchased Life technology
Briefly: Z'-LYTE in vitro enzyme activity assay, VEGFR2. The following applies: 100 μM ATP, 60 minutes, room temperature; read-out: IC50 detected by Z'-LYTE, VEGFR2. As to the method: (§1) The enzyme activity was measured by Z′-LYTE™ Detection Kinase Assay. The IC50 value of the compounds was used as an index to evaluate the inhibitory effect of the compounds on VEGFR2, FGFR1 and PDGFRB.
(§2) Recombinant human VEGFR2 and FGFR1 proteases were purchased from Life technology, PDGFRB Protease was purchased from Millipore.
(§3) Z-LYTE™ Kit Tyr1 and Tyr4 were purchased from Life technology. Multi-microplate reader, Envision (PerkinElmer) read board was used.
(§4) The test compounds were diluted 3 times with a concentration gradient, the final concentration was from 10 μM to 0.17 nM with a total of 11 concentrations, and each concentration had two parallel holes; the content of DMSO in the assay was 1%.
3 nM VEGFR2 protein kinase, 2 μM Tyr1 peptide, 100 μM ATP, 50 mM HEPES (pH 7.5), 10 mM MgCl2, 1 mM EGTA, 0.01% BRIJ-35. The detector plate was Black Proxiplate 384-Plus plate (PerkinElmer), the reaction was performed at room temperature for 60 minutes, and the reaction system was 10 μl.
(§5) The reaction was stopped by adding 5 μl of DV reagent B (1:128) to the kinase reaction solution and incubated at 23° C. for 60 minutes. The Envision instrument was used to read the plate.
(§6) The data was converted to phosphorylation rate and inhibition rate and the 4 parameter curve fitting (Model 205 in XLFIT5, iDBS) was used to get IC50 data of the compounds.

The target of assay [2] is T2, FGFR1 (Homo sapiens, UniProt P11362).
T2 construct: purchased Life technology
T2 sequence (P11362 22-822): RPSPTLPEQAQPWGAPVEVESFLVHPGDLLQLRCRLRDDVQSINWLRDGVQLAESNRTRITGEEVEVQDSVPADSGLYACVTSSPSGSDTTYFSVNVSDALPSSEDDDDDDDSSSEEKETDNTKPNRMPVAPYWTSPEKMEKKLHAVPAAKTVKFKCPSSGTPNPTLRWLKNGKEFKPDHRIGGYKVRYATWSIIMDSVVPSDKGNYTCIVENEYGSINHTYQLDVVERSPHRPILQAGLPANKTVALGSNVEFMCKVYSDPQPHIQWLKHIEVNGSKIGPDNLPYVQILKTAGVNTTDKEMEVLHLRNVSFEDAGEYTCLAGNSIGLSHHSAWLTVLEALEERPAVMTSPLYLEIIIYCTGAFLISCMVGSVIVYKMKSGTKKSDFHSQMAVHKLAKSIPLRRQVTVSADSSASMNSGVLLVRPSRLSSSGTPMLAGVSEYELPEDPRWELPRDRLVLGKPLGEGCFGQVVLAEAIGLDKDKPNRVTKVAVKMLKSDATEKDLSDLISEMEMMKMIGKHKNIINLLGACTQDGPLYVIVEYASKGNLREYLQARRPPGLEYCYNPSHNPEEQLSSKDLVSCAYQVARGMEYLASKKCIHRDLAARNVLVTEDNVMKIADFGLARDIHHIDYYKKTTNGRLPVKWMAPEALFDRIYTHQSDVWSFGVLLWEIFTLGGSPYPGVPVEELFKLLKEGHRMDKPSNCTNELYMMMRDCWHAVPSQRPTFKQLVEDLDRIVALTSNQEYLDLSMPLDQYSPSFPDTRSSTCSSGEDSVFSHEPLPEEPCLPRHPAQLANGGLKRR
Briefly: Z'-LYTE in vitro enzyme activity assay, FGFR1. Particulars: 25 μM ATP, 60 minutes, room temperature; read-out: IC50 detected by Z'-LYTE, FGFR1. As to the method: as §1, §2, §3, §4
1 nM FGFR1 protein kinase, 2 μM Tyr4 peptide, 25 μM ATP, 50 mM HEPES (pH 7.5), 10 mM MgCl2, 1 mM EGTA, 0.01% BRIJ-35, 2 mM MnCl2, 1 mM DTT. The detector plate was Black Proxiplate 384-Plus plate (PerkinElmer), the reaction was performed at room temperature for 60 minutes, and the reaction system was 10 μl.
as §5, §6

The target in assay [3] is T3, PDGFRB (Homo sapiens, UniProt P09619).
T3 construct: purchased Millipore
T3 sequence (P09619 33-1106): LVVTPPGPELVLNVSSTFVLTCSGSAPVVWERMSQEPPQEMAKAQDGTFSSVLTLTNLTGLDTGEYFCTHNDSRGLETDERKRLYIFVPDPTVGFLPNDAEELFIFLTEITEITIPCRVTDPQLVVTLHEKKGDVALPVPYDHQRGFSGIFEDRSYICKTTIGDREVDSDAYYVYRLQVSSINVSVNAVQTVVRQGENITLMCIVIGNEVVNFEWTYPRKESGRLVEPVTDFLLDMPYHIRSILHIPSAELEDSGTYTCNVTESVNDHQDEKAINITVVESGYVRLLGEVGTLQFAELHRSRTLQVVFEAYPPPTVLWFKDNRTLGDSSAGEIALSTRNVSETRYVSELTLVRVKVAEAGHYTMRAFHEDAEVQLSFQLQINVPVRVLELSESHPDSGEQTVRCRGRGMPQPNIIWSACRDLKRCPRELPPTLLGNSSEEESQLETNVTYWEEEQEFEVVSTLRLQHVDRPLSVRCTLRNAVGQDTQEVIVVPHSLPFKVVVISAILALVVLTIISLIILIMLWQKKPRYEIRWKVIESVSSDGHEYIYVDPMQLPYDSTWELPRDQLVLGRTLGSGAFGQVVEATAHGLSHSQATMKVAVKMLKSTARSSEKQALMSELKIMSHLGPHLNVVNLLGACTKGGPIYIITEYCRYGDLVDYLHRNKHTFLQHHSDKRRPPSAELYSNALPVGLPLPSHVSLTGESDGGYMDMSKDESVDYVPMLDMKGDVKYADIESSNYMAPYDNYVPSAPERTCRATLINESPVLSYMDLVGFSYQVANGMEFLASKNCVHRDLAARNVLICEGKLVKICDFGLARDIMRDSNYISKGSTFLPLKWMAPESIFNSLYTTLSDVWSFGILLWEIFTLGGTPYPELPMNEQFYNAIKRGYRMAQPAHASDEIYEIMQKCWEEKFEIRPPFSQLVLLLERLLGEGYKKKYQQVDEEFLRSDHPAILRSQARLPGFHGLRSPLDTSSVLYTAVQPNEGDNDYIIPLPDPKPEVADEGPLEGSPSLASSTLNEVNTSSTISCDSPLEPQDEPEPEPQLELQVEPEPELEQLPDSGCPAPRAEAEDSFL
Briefly: Z'-LYTE in vitro enzyme activity assay, PDGFRB. The following applies: 100 μM ATP, 60 minutes, room temperature; read-out: IC50 detected by Z'-LYTE, PDGFRB. Here is the method: as §1, §2, §3, §4
40 nM PDGFRB protein kinase, 2 μM Tyr4 peptide, 100 μM ATP, 50 mM HEPES (pH 7.5), 10 mM MgCl2, 1 mM EGTA, 0.01% BRIJ-35, 2 mM MnCl2, 1 mM DTT. The detector plate was Black Proxiplate 384-Plus plate (PerkinElmer), the reaction was performed at room temperature for 60 minutes, and the reaction system was 10 μl.
as §5, §6

Where only a bound is given, the exact number is not on record here.

One may read the IC50 as the concentration at which inhibition is half-maximal.

T1 sequence (P35968 20-1356): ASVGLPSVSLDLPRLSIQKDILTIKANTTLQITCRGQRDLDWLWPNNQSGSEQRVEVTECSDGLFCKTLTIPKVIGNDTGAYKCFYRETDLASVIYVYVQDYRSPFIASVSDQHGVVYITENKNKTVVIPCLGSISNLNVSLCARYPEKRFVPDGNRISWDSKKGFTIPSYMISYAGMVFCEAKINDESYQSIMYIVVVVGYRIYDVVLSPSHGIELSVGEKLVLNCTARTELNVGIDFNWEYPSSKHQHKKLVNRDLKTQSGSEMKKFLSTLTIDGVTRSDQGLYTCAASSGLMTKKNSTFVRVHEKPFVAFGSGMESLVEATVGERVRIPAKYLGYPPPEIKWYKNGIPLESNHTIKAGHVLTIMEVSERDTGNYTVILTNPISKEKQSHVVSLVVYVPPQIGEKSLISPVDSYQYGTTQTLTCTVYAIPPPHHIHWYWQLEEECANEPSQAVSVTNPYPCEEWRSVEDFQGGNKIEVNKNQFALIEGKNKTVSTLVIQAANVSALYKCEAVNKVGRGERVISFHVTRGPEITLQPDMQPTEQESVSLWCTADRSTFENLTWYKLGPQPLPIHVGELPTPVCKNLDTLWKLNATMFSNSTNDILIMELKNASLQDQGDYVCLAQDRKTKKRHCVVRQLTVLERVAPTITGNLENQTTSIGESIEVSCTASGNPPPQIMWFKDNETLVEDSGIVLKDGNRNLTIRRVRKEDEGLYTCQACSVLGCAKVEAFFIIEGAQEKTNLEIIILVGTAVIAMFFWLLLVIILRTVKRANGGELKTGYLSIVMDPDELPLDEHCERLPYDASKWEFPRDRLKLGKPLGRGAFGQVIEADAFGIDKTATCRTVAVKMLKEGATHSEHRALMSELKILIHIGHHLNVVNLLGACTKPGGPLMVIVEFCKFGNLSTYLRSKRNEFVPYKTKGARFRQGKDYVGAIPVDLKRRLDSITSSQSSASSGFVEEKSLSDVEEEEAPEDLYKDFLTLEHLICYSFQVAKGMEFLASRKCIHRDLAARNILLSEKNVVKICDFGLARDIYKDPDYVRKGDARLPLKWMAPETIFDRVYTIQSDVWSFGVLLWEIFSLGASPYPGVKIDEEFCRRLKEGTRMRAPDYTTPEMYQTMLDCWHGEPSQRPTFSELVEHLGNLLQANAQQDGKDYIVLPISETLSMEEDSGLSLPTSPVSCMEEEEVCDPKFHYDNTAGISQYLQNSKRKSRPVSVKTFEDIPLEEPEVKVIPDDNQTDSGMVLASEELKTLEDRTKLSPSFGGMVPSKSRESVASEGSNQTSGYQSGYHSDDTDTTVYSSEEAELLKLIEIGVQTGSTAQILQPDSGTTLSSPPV

Take `COc1cc2nccc(Oc3ccc4c(C(=O)NC5CC5)c[nH]c4c3)c2cc1C(N)=O` [Example 186]: the IC50 is < 50 nM in assay [1], 200 to 1000 nM in assay [2] and 200 to 1000 nM in assay [3].
As for `COCCNC(=O)c1cc2c(Oc3ccc(NC(=S)NC4CC4)c(Cl)c3)ccnc2cc1OC` [Example 62], the 50% inhibitory concentration (IC50) was in the range of 50 to 200 nM in assay [1], 200 to 1000 nM in assay [2] and 200 to 1000 nM in assay [3].
For the compound `COc1cc2nccc(Oc3ccc(NC(=O)N4CC[C@@H](F)C4)c(Cl)c3F)c2cc1C(N)=O` [Example 113], the IC50 in assay [1], in assay [2] and in assay [3] was 200 to 1000 nM in each case.
With `COc1cc2nccc(Oc3ccc(Nc4c(NCC(C)C)c(=O)c4=O)c(Cl)c3)c2cc1C(N)=O` [Example 144], the 50% inhibitory concentration (IC50) in assay [1], in assay [2] and in assay [3] was 200 to 1000 nM each time.
For `COc1cc2nccc(Oc3ccc4c(C(=O)N5CC[C@@H](F)C5)coc4c3)c2cc1C(N)=O` [Example 202], the half-inhibitory concentration (IC50) in assay [1], in assay [2] and in assay [3] was 200 to 1000 nM each time.
Regarding `COc1cc2nccc(Oc3ccc(NC(=S)Nc4ccc(F)cc4)c(Cl)c3)c2cc1C(N)=O` [Example 64], the values for the IC50 in assay [1], in assay [2] and in assay [3] were 50 to 200 nM, 200 to 1000 nM and < 50 nM, respectively.
Turning to `COc1cc2nccc(Oc3ccc4nc(NCC(C)C)sc4c3)c2cc1C(N)=O` [Example 156], the IC50 in assay [1], in assay [2] and in assay [3] was 200 to 1000 nM throughout.
With `[2H]C([2H])([2H])NC(=O)c1coc2cc(Oc3ccnc4cc(OC)c(C(N)=O)cc34)c(Cl)cc12` [Example 211], the IC50 in assay [1] is 50 to 200 nM; in assay [2], 200 to 1000 nM; in assay [3], < 50 nM.
In the same order, the values of `COc1cc2nccc(Oc3ccc(NC(=S)NCCc4ccccc4)c(Cl)c3)c2cc1C(N)=O` [Example 14] are 200 to 1000 nM, 200 to 1000 nM and 50 to 200 nM.
For `COc1cc2nccc(Oc3ccc4[nH]cc(C#N)c4c3)c2cc1C(N)=O` [Example 162], in that order: 200 to 1000 nM, 200 to 1000 nM and 200 to 1000 nM.
In the case of `COc1cc2nccc(Oc3cc4occ(C(=O)N5CCCC5)c4cc3Cl)c2cc1C(N)=O` [Example 197], the 50% inhibitory concentration (IC50) in assay [1], in assay [2] and in assay [3] was 200 to 1000 nM each time.
As to `COc1cc2nccc(Oc3ccc(NC(=S)Nc4ccc(Cl)c(F)c4)c(Cl)c3)c2cc1C(N)=O` [Example 3], the concentration for half-maximal inhibition (IC50) in assay [1], in assay [2] and in assay [3] was 200 to 1000 nM throughout.
Turning to `COc1cc2nccc(Oc3ccc(NC(=O)NC(C)C(F)(F)F)c(Cl)c3)c2cc1C(N)=O` (stereo not drawn) [Example 36], the IC50 in assay [1], in assay [2] and in assay [3] was 200 to 1000 nM throughout.
Take `COc1cc2nccc(Oc3ccc(NC(=S)NCCCSC)c(Cl)c3)c2cc1C(N)=O` [Example 63]: the 50% inhibitory concentration (IC50) in assay [1] was 50 to 200 nM; in assay [2], 200 to 1000 nM; in assay [3], < 50 nM.
For `COc1cc2nccc(Oc3ccc(NC(=S)NC4CC(O)C4)c(Cl)c3)c2cc1C(N)=O` (stereo not drawn) [Example 27], in that order: 50 to 200 nM, 200 to 1000 nM and 50 to 200 nM.
With `COc1cc2nccc(Oc3ccc(NC(=S)NC4CC=C(F)CC4)c(Cl)c3)c2cc1C(N)=O` (stereo not drawn) [Example 60], the half-maximal inhibitory concentration (IC50) in assay [1], in assay [2] and in assay [3] was 200 to 1000 nM in each case.
With `COc1cc2nccc(Oc3ccc4nc(NC5CCC5)sc4c3)c2cc1C(N)=O` [Example 158], the half-inhibitory concentration (IC50) in assay [1], in assay [2] and in assay [3] was 200 to 1000 nM in each case.
On to `COc1cc2nccc(Oc3ccc4c(C(=O)N5CC[C@H](F)C5)coc4c3)c2cc1C(N)=O` [Example 205], for which the half-maximal inhibitory concentration (IC50) in assay [1], in assay [2] and in assay [3] was 200 to 1000 nM throughout.
Turning to `COc1cc2nccc(Oc3ccc(Nc4c(Nc5cccc(C(F)(F)F)c5)c(=O)c4=O)c(Cl)c3)c2cc1C(N)=O` [Example 155], the IC50 in assay [1] was 200 to 1000 nM; in assay [2] it was 200 to 1000 nM; in assay [3], < 50 nM.
For the compound `COc1cc2nccc(Oc3ccc(NC(=S)N4CCCC4)c(Cl)c3)c2cc1C(N)=O` [Example 32], the figures for the IC50 in assay [1], in assay [2] and in assay [3] were < 50 nM, 200 to 1000 nM and 200 to 1000 nM, respectively.
Regarding `COc1cc2nccc(Oc3ccc(NC(=S)NCCCO)c(Cl)c3)c2cc1C(N)=O` [Example 29], the half-maximal inhibitory concentration (IC50) in assay [1] is 50 to 200 nM; in assay [2], 200 to 1000 nM; in assay [3], 50 to 200 nM.
`C#CCNC(=S)Nc1ccc(Oc2ccnc3cc(OC)c(C(N)=O)cc23)cc1Cl` [Example 92]: the IC50 in assay [1] was in the range of 50 to 200 nM; in assay [2], 200 to 1000 nM; in assay [3], 50 to 200 nM.
`COc1cc2ncc(Cl)c(Oc3ccc(NC(=S)N4CC(F)(F)C4)c(Cl)c3)c2cc1C(N)=O` [Example 89]: the IC50 in assay [1], in assay [2] and in assay [3] was 200 to 1000 nM in each case.
Take `COc1cc2nccc(Oc3ccc(NC(=S)NC4CC4)c(Cl)c3)c2cc1C#N` [Example 80]: the half-maximal inhibitory concentration (IC50) was 50 to 200 nM in assay [1], 200 to 1000 nM in assay [2] and 200 to 1000 nM in assay [3].
With `COc1cc2nccc(Oc3cc(Cl)c4c(C(=O)N5CC(F)(F)C5)coc4c3)c2cc1C(N)=O` [Example 195], the IC50 in assay [1], in assay [2] and in assay [3] was 200 to 1000 nM throughout.
Regarding `COc1cc2nccc(Oc3ccc(NC(=S)N4CCC(F)(F)CC4)c(Cl)c3)c2cc1C(N)=O` [Example 67], the results for the IC50 in assay [1], in assay [2] and in assay [3] were 50 to 200 nM, 200 to 1000 nM and 200 to 1000 nM, respectively.
As for `COc1cc2ncc(Cl)c(Oc3ccc(NC(=S)NC4CC4)c(Cl)c3)c2cc1C(N)=O` [Example 84], the 50% inhibitory concentration (IC50) in assay [1], in assay [2] and in assay [3] was 200 to 1000 nM in each case.
`COc1cc2nccc(Oc3ccc(Nc4c(NCCN(C)C)c(=O)c4=O)c(Cl)c3)c2cc1C(N)=O` [Example 136]: the IC50 in assay [1], in assay [2] and in assay [3] was 200 to 1000 nM in each case.
In the case of `COc1cc2nccc(Oc3cc4occ(C(=O)NC5CC5)c4cc3Cl)c2cc1C(N)=O` [Example 199], the IC50 was 50 to 200 nM in assay [1], 200 to 1000 nM in assay [2] and < 50 nM in assay [3].
For `COc1cc2nccc(Oc3ccc(NC(=O)N4CC[C@@H](O)C4)c(Cl)c3F)c2cc1C(N)=O` [Example 115], in that order: 200 to 1000 nM, 200 to 1000 nM and 200 to 1000 nM.
Consider `COc1cc2nccc(Oc3cc(Br)c4c(C(=O)N5CC(F)(F)C5)coc4c3)c2cc1C(N)=O` [Example 204], for which the IC50 in assay [1], in assay [2] and in assay [3] was 200 to 1000 nM in each case.
On to `COc1cc2nccc(Oc3ccc(Nc4c(NC5CCOCC5)c(=O)c4=O)c(Cl)c3)c2cc1C(N)=O` [Example 139], for which the half-maximal inhibitory concentration (IC50) in assay [1], in assay [2] and in assay [3] was 200 to 1000 nM throughout.
For the compound `COc1cc2nccc(Oc3ccc(CC(=O)N4CC(F)(F)C4)cc3)c2cc1C(N)=O` [Example 177], the IC50 in assay [1] lay within 200 to 1000 nM; in assay [2], 200 to 1000 nM; in assay [3] it was 50 to 200 nM.
For `COc1cc2nccc(Oc3ccc(NC(=S)NCc4ccccn4)c(Cl)c3)c2cc1C(N)=O` [Example 11], the IC50 was in the range of 200 to 1000 nM in assay [1], 200 to 1000 nM in assay [2] and 50 to 200 nM in assay [3].
Turning to `COc1cc2nccc(Oc3ccc(NC(=S)N4CCCC4)c(Cl)c3)c2cc1NC(C)=O` [Example 181], the 50% inhibitory concentration (IC50) in assay [1], in assay [2] and in assay [3] was 200 to 1000 nM in each case.
Take `COc1cc2nccc(Oc3ccc4c(C(=O)N5CC(F)(F)C5)coc4c3)c2cc1C(N)=O` [Example 187]: the IC50 in assay [1], in assay [2] and in assay [3] was 200 to 1000 nM each time.
In the case of `COc1cc2nccc(Oc3ccc4c(C(=O)N5CCCC5)coc4c3)c2cc1C(N)=O` [Example 206], the concentration for half-maximal inhibition (IC50) in assay [1], in assay [2] and in assay [3] was 200 to 1000 nM each time.
For `COc1cc2nccc(Oc3ccc(NC(=O)N4CC(O)C4)c(Cl)c3F)c2cc1C(N)=O` [Example 121], the results for the half-maximal inhibitory concentration (IC50) in assay [1], in assay [2] and in assay [3] were 50 to 200 nM, 200 to 1000 nM and 200 to 1000 nM, respectively.

Values taken from patent publication US10654808B2, “Tyrosine kinase inhibitor and pharmaceutical composition comprising same” (GUANGDONG RAYNOVENT BIOTECH CO., LTD., priority 2015, dated 2020).
